From US20160102066A1, “BENZOTHIAZOLE DERIVATIVE AND ANTI-TUMOR USE THEREOF” (YANTAI UNIVERSITY, priority 2014, published 2016)

Tested on: prostate cancer RM-1 transplanted tumor
Test: mice prostate cancer RM-1 transplanted tumor, in vivo
Details: male C57/BL6 mice, i.p., Docetaxel 10 mg/kg × 3, 1-1 100 mg/kg × 4
Protocol: The experiment procedures are summarized as follows: mice who had prostate cancer RM-1 and grown well were sacrificed by cervical dislocation. Under sterile conditions, tumor mass growing well was stripped off, homogenized, diluted with physiological saline in 1:4. Each mouse was inoculated 0.2 mL of the tumor solution in the armpit and back (approximately 2*10^6 cells). On the next day; the animals were randomized into groups and the administration began. […] The dosing volume was 0.1 mL/10 g. At the same time, docetaxel control group and solvent control group were set. As for the docetaxel group, the animals were administered by intraperitoneal injection at 10 mg/kg dose, the dosing volume was 0.1 mL/10 g. After continuous administration for 10 days, the animals were sacrificed by cervical dislocation, weighed the body and the tumor, respectively. Inhibition rate of tumor growth (%) was calculated, and the results were statistically processed.

With CC(=O)O[C@@]12CO[C@@H]1C[C@H](O)[C@@]1(C)C(=O)[C@H](O)C3=C(C)[C@@H](OC(=O)[C@H](O)[C@@H](NC(=O)OC(C)(C)C)c4ccccc4)C[C@@](O)([C@@H](OC(=O)c4ccccc4)[C@H]21)C3(C)C [Docetaxel, docetaxel] the Tumor weight was 1.77 ± 0.61 g, the “body weight of Animals, Final” value (at sacrifice) was 18.43 ± 2.17 g and the “body weight of Animals, Initial” value (baseline) was 20.00 ± 1.07 g. For the same compound, the “Inhibition rate of tumor growth” value (versus solvent control) was 32%.
